Laboratory results from patent US9266872B2, “2-hydroxyarylamide derivative or pharmaceutically acceptable salt thereof, preparation method thereof, and pharmaceutical composition for preventing or treating cancer containing same as active ingredient” (KOREA RESEARCH INSTITUTE OF BIOSCIENCE AND BIOTECHNOLOGY, priority 2011, dated 2016).

Target: T1, TMPRSS4 serine protease (Homo sapiens, UniProt Q9NRS4)
T1 construct: TMPRSS4 serine protease domain (205th Val˜437th Leu) was cloned in pET21b/NdeI-XhoI; inferred from pET21b XhoI cloning and Ni-NTA purification) (C); made in house; host or cells: E. coli BL21 (DE3)
T1 sequence (Q9NRS4 205-437): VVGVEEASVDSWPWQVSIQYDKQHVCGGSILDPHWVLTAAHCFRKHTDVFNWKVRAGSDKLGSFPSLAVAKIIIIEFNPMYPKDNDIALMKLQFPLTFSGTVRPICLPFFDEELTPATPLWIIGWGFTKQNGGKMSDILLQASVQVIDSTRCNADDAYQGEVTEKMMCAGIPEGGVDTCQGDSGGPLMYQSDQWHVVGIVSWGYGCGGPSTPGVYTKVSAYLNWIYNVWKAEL
Experiment: Inhibitory effect on TMPRSS4 serine protease activity using peptide substrate
Assay type: biochemical
Details: kallikrein peptide substrate 100 μM, DMSO negative control; for inhibition at 10 µM / Intracellular protease activity Inhibition % 10 uM: 10 uM compound; for inhibition at 10 µM: read-out: Intracellular protease activity Inhibition % 10 uM; for inhibition at 30 µM: read-out: Intracellular protease activity Inhibition % 30 uM; for inhibition at 100 µM: 100 uM compound, read-out: Intracellular protease activity Inhibition % 100 uM
Description: TMPRSS4 serine protease domain (205th Val˜437th Leu) was cloned in pET21b/NdeI-XhoI, which was introduced in E. coli BL21 (DE3). At this time, FlagX2-enterokinase cleavage site ([…]; total 15 amino acids) was inserted in N-terminal of TMPRSS4 serine protease domain as shown in FIG. 1. The forward and reverse primers for PCR used for the cloning were presented by SEQ. ID. NO: 1 and NO: 2.
The cells were cultured in 10 ml of LB containing ampicillin at 37° C. overnight. IL of LB+ampicillin was added thereto, followed by further culture until OD reached 0.6˜0.8. 0.1 mM IPTG was added thereto, followed by further culture for 16 hours. Cell pellet was obtained, purified by Ni-NTA (Qiagen), and dialyzed. TMPRSS4 serine protease (pro-form) labeled with 2 mg of 2Xflag-enterokinase cleavage site was conjugated to Ni-NTA resin (4°, overnight). Enterokinase (NEB) was treated thereto at the concentration of 0.0002%/w/w at room temperature for 5 hours. The sample was washed, eluted with 50 mM imidazole in 20 mM of sodium phosphate buffer, and then dialyzed.
The protein activity was evaluated by measuring fluorescence shown during hydrolysis of the peptide. […] Reaction was induced after adding 100 μM of the peptide substrate into reaction buffer (50 mM Tris-HCl (pH 8.0), 10 mM CaCl2, 1 μM ZnCl2). Then, fluorescence was measured at 5 minutes interval (excitation 385 nm, emission 455 nm).
Then, fluorescence (excitation 385 nm/emission 455 nm) was measured at 5 minutes interval for 150 minutes. […] Dimethylsulfoxide (DMSO) was used as the negative control.

inhibition at 10 µM | inhibition at 30 µM (30 uM compound) | Intracellular protease activity Inhibition % 10 uM | inhibition at 100 µM | Intracellular protease activity Inhibition % 30 uM (30 uM compound) | SMILES
0% | 53% | – | – | – | COc1ccc(O)c(C(=O)Nc2cc(C(F)(F)F)cc(C(F)(F)F)c2)c1 [Example 7, N-(3,5-bis(trifluoromethyl)phenyl)-2-hydroxy-5-methoxybenzamide]
0% | 55% | – | – | – | O=C(Nc1cc(C(F)(F)F)cc(C(F)(F)F)c1)c1cc(F)ccc1O [Example 14, N-(3,5-bis(trifluoromethyl)phenyl)-5-fluoro-2-hydroxybenzamide]
29% | 74% | – | – | – | O=C(Nc1cc(C(F)(F)F)cc(C(F)(F)F)c1)c1ccc(Cl)cc1O [Example 54, N-(3,5-bis(trifluoromethyl)phenyl)-4-chloro-2-hydroxybenzamide]
14% | – | – | – | – | Cn1ccc(NC(=O)c2cc(Cl)ccc2O)n1 [Example 74, 5-chloro-2-hydroxy-N-(1-methyl-1H-pyrazol-3-yl)benzamide]
0% | 0% | – | – | – | CC(=O)Nc1ccc(O)c(C(=O)Nc2cc(C(F)(F)F)cc(C(F)(F)F)c2)c1 [Example 35, 5-acetamido-N-(3,5-bis(trifluoromethyl)phenyl)-2-hydroxybenzamide]
– | 29% | – | 69% | – | N#Cc1ccc(NC(=O)c2cc(Cl)ccc2O)cc1 [Example 12, 5-chloro-N-(4-cyanophenyl)-2-hydroxybenzamide]
– | 44% | – | 90% | – | O=C(Nc1nccs1)c1cc(Cl)ccc1O [Example 51, 5-chloro-2-hydroxy-N-(thiazole-2-yl)benzamide]
15% | 58% | – | – | – | O=C(Nc1cc(Cl)cc(Cl)c1)c1cc(Cl)ccc1O [Example 61, 5-chloro-N-(3,5-dichlorophenyl)-2-hydroxybenzamide]
37% | 59% | – | – | – | O=C(Nc1ccc(C(F)(F)F)c(C(F)(F)F)c1)c1cc(Cl)ccc1O [Example 62, N-(3,4-bis(trifluoromethyl)phenyl)-5-chloro-2-hydroxybenzamide]
– | 31% | – | 51% | – | O=C(Nc1c(F)c(F)nc(F)c1F)c1cc(Cl)ccc1O [Example 43, 5-chloro-2-hydroxy-N-(perfluoropyridine-4-yl)benzamide]
0% | 64% | – | – | – | Cc1ccc(O)c(C(=O)Nc2cc(C(F)(F)F)cc(C(F)(F)F)c2)c1 [Example 3, N-(3,5-bis(trifluoromethyl)phenyl)-2-hydroxy-5-methylbenzamide]
– | 35% | – | 21% | – | O=C(Nc1ccnc(Cl)c1)c1cc(Cl)ccc1O [Example 47, 5-chloro-N-(2-chloropyridine-4-yl)-2-hydroxybenzamide]

Second part, the compound before the results:

SMILES | inhibition at 10 µM | inhibition at 30 µM (30 uM compound) | Intracellular protease activity Inhibition % 10 uM | inhibition at 100 µM | Intracellular protease activity Inhibition % 30 uM (30 uM compound)
O=C(Nc1ccc(C(F)(F)F)cc1)c1cc(Cl)ccc1O [Example 15, 5-chloro-N-(4-(trifluoromethyl)phenyl)-2-hydroxybenzamide] | 22% | 100% | – | – | –
O=C(Nc1cc(C(F)(F)F)cc(C(F)(F)F)c1)c1cc(Br)ccc1O [Example 9, N-(3,5-bis(trifluoromethyl)phenyl)-5-bromo-2-hydroxybenzamide] | 51 to 100% | 84% | 54% | – | –
O=C(Nc1cccc(C(F)(F)F)c1)c1cc(Cl)ccc1O [Example 10, 5-chloro-N-(3-(trifluoromethyl)phenyl)-2-hydroxybenzamide] | 37% | 91% | – | – | –
O=C(Nc1ccc(C(F)(F)F)cn1)c1cc(Cl)ccc1O [Example 41, 5-chloro-2-hydroxy-N-(5-(trifluoromethyl)pyridine-2-yl)benzamide] | – | 25% | – | 47% | –
Cc1cc(C)nc(NC(=O)c2cc(Cl)ccc2O)n1 [Example 48, 5-chloro-N-(4,6-dimethylpyrimidine-2-yl)-2-hydroxybenzamide] | – | 0% | – | 0% | –
N#Cc1ccc(O)c(C(=O)Nc2cc(C(F)(F)F)cc(C(F)(F)F)c2)c1 [Example 56, N-(3,5-bis(trifluoromethyl)phenyl)-5-cyano-2-hydroxybenzamide] | 15% | 53% | – | – | –
O=C(Nc1ncccn1)c1cc(Cl)ccc1O [Example 49, 5-chloro-2-hydroxy-N-(pyrimidine-2-yl)benzamide] | – | 0% | – | 2% | –
Cc1cc(Cl)cc(C(=O)Nc2cc(C(F)(F)F)cc(C(F)(F)F)c2)c1O [Example 34, N-(3,5-bis(trifluoromethyl)phenyl)-5-chloro-2-hydroxy-3-methylbenzamide] | 33% | 78% | – | – | –
O=C(Nc1cc(C(F)(F)F)ccc1F)c1cc(Cl)ccc1O [Example 64, 5-chloro-N-(2-fluoro-5-(trifluoromethyl)phenyl)-2-hydroxybenzamide] | – | – | 67% | 100% | –
O=C(Nc1nc(C(F)(F)F)cs1)c1cc(Cl)ccc1O [Example 52, 5-chloro-2-hydroxy-N-(4-(trifluoromethyl)thiazole-2-yl)benzamide] | – | 61% | – | 100% | –
O=C(Nc1cc(C(F)(F)F)cc(C(F)(F)F)c1)c1cc(Cl)cnc1O [Example 67, N-(3,5-bis(trifluoromethyl)phenyl)-5-chloro-2-hydroxynicotineamide] | 0% | 19% | – | – | –
CC(=O)Oc1ccc(Cl)cc1C(=O)Nc1cc(C(F)(F)F)cc(C(F)(F)F)c1 [Example 57, 2-(3,5-bis(trifluoromethyl)phenylcarbamoyl)-4-chlorophenylacetate] | 0% | 4% | – | – | –
O=C(Nc1cc(C(F)(F)F)ccc1C(F)(F)F)c1cc(Cl)ccc1O [Example 18, N-(2,5-bis(trifluoromethyl)phenyl)-5-chloro-2-hydroxybenzamine] | 46% | 54% | – | – | –
O=C(Nc1ccccc1)c1cc(Cl)ccc1O [Example 59, 5-chloro-2-hydroxy-N-phenylbenzamide] | – | 13% | – | 75% | –
O=C(Nc1nc(-c2cccnc2)cs1)c1cc(Cl)ccc1O [Example 76, 5-chloro-2-hydroxy-N-(4-(pyridin-3-yl)thiazol-2-yl)benzamide] | 30% | – | – | – | –
O=C(Nc1cc(C(F)(F)F)ccc1Cl)c1cc(Cl)ccc1O [Example 23, 5-chloro-N-(2-chloro-5-(trifluoromethyl)phenyl)-2-hydroxybenzamide] | 51 to 100% | 99% | 64% | 100% | –
O=C(Nc1cc(C(F)(F)F)cc(C(F)(F)F)c1)c1cc(Cl)ccc1OCc1ccccc1 [Example 58, 2-benzyloxy-N-(3,5-bis-trifluoromethyl-phenyl)-5-chlorobenzamide] | 0% | 6% | – | – | –
O=C(NC1=NCCS1)c1cc(Cl)ccc1O [Example 69, 5-chloro-N-(4,5-dihydrothiazol-2-yl)-2-hydroxybenzamide] | 17% | – | – | – | –
O=C(Nc1cc(C(F)(F)F)cc(C(F)(F)F)c1)c1cc(-c2ccc(F)cc2F)ccc1O [Example 30] | 5% | 31% | – | – | –
Cc1nc(NC(=O)c2cc(Cl)ccc2O)n[nH]1 [Example 75, 5-chloro-2-hydroxy-N-(5-methyl-1H-1,2,4-triazol-3-yl)benzamide] | 51 to 100% | – | 58% | – | –
O=C(Nc1ccc(Br)c(C(F)(F)F)c1)c1cc(Cl)ccc1O [Example 16, N-(4-bromo-3-(trifluoromethyl)phenyl)-5-chloro-2-hydroxybenzamine] | – | – | 80% | 98% | 93%
N#Cc1cccc(NC(=O)c2cc(Cl)ccc2O)c1 [Example 11, 5-chloro-N-(3-cyanophenyl)-2-hydroxybenzamide] | 12% | 47% | – | 88% | –
NC(=O)c1ccc(O)c(C(=O)Nc2cc(C(F)(F)F)cc(C(F)(F)F)c2)c1 [Example 38, N^3-(3,5-bis-trifluoromethyl-phenyl)-4-hydroxy-isophthalamide] | 0% | 21% | – | – | –
Nc1ccc(O)c(C(=O)Nc2cc(C(F)(F)F)cc(C(F)(F)F)c2)c1 [Example 31, 5-amino-N-(3,5-bis(trifluoromethyl)phenyl)-2-hydroxybenzamide] | 3% | 30% | – | – | –
